The test system of assay [1] is A-to-I RNA editing reporter (ADAR) in A375. In words: A-to-I PepTile (REPTILE) screen: A-to-I editing of dsRNA hairpin reporter by NGS. The assay is classed as cell-based, human. Particulars: for % A-to-I editing (IFNα): IFNα 6000 U/ml for 48 hours; for % A-to-I editing (Basal): no treatment. The text has this:
(§1) FIGS. 12A-12D. A-to-I PepTile screen. (A) Composition of A-to-I PepTile linrary screen, and schematic description of the lentiviral expression vector. (B) Experimental workflow. A375 cells were transduced at low MOI, and then treated or not with IFNα for 48 hrs. RNA was extracted and Peptide_ADARreporter RNA species were amplified and sequenced by NGS. (C) Dot plot of A-to-I PepTile library effect on A-to-I editing with or without IFNα treatment. Red line is the mean A-to-I editing of all the 8088 peptides (>100 read counts) no treatment: 25.75% IFNα: 37.6%. (D) Dot plot of A-to-I PepTile library fitness effect upon IFNα for 48 hrs.
FIGS. 17A-17F show A-to-I RNA Editing PiTile (REPTILE) screen in A375. (A) A-to-I RNA Editing PiTile (REPTILE) library design consist of fragmentation of all known ADAR1, ADAR2 interactors and all human double stranded RNA-binding protein into 40 amino acid long peptide. This library was then cloned into a lentivirus vector that also encode a DNA-encoded RNA loop reporter (A-to-I Rep) that is edited by ADAR proteins in cells at the RNA level. When the construct is expressed, the RNA loop gets edited on a single Adenosine, while the 40-mer peptide get expressed at the protein level. Then we can measure the impact of the peptide expression on the editing rate of the RNA loop reporter by sequencing (NGS and Sanger). (B) Experimental workflow of REPTILE screen in A375 cell line. Cells were transduced with the REPTILE library, and then treated for 48 hours with IFNα. Following the treatment, RNA was harvested, converted into cDNA and amplicon library containing peptide Identity (barcode) linked to the RNA loop reporter were prepared for NGS. (C) Result of the A375 REPTILE screen in the no treatment condition. Each dot represents a unique peptide that is associated with an A-to-I editing rate that was measured on the RNA loop. (D) Result of the A375 REPTILE screen in the IFNα condition. Each dot represents a unique peptide that is associated with an A-to-I editing rate that was measured on the RNA loop. Red line represent the A-to-I editing mean, Dash blue line represent 2 times the standard deviation of the % A-to-I editing across all the datasets. This cutoff was used to defined peptides hits that modulate RNA A-to-I editing. (E) Peptide A-to-I Inhibitor Hits intersection between no treatment (% A-to-I editing<15%) and IFNα (% A-to-I editing<27%) conditions. (F) Peptide A-to-I Enhancers Hits intersection between no treatment (% A-to-I editing>36%) and IFNα (% A-to-I editing>47%) conditions.
Provided herein is a screening methodology to measure the effect of small peptide on A-to-I RNA editing in situ and screen thousands of peptides in a single experiment. First, a library of peptides with the potential of impairing A-to-I editing was designed and built. ADAR enzymes edit RNA only on double-stranded RNA structures and via ADAR's double stranded RNA-Binding Domain (dsRBD). […] The A-to-I PepTile library is composed of 19 Human proteins having dsRBD and 34 known protein-protein interactors of ADAR1/2. All these proteins were tiled into 40-mer peptides every 4 amino acids (FIG. 12A). To measure A-to-I editing, a biosensor consisting of a 71 bp dsRNA hairpin structure that gets A-to-I edited at a rate of 25% in A375 melanoma cells, and ~37% upon IFNα treatment was used. This A-to-I editing reporter is fused with DNA sequence encoding for a peptide from the A-to-I PepTile library. The A-to-I PepTile plasmid pool (10304 elements) was used to produced lentiviruses and transduced A375 cells at a low multiplicity of infection (MOI) (FIG. 12B). A part of the infected cells was treated with IFNα at 6000 U/ml for 48 hours, and then bulk RNA of the basal and treated condition was harvested. RNA was then retrotranscribed into cDNA and sequenced by Next-Generation Sequencing (NGS). […]

For another assay, the system named is A375 cells. Put plainly: A-to-I PepTile screen: fitness effect upon IFNα (PepTile abundance untreated vs treated). The class given is cell-based, human.
Description: as §1
Provided herein is a screening methodology to measure the effect of small peptide on A-to-I RNA editing in situ and screen thousands of peptides in a single experiment. First, a library of peptides with the potential of impairing A-to-I editing was designed and built. ADAR enzymes edit RNA only on double-stranded RNA structures and via ADAR's double stranded RNA-Binding Domain (dsRBD). […] The A-to-I PepTile library is composed of 19 Human proteins having dsRBD and 34 known protein-protein interactors of ADAR1/2. All these proteins were tiled into 40-mer peptides every 4 amino acids (FIG. 12A). To measure A-to-I editing, a biosensor consisting of a 71 bp dsRNA hairpin structure that gets A-to-I edited at a rate of 25% in A375 melanoma cells, and ~37% upon IFNα treatment was used. This A-to-I editing reporter is fused with DNA sequence encoding for a peptide from the A-to-I PepTile library. The A-to-I PepTile plasmid pool (10304 elements) was used to produced lentiviruses and transduced A375 cells at a low multiplicity of infection (MOI) (FIG. 12B). A part of the infected cells was treated with IFNα at 6000 U/ml for 48 hours, and then bulk RNA of the basal and treated condition was harvested. RNA was then retrotranscribed into cDNA and sequenced by Next-Generation Sequencing (NGS). With the sequencing data, the A-to-I editing percentage of the RNA reporter for each PepTile is calculated since both elements are encoded on the same transcript. Moreover, with this screen one can also measure the abundance of the PepTiles between the untreated and treated conditions and determine Fitness score associated to every PepTile. To ensure a robust and more accurate A-to-I editing % estimation a cut-off of 100 read counts was set for each PepTile. […] SEQ ID NOs: 2125-2147 are A-to-I peptide inhibitors and SEQ ID NOs: 2148-2210 are A-to-I activators. In addition, 117 PepTiles were identified that either synergize (SEQ ID NOs: 2211-2243) or protect (SEQ ID NOs: 2244-2327) to IFNα-induced cell death (FIG. 12D and Table 5). These PepTiles are potential new therapeutic agents that can modulate the Interferon pathway. They may be beneficial in treating inflammatory conditions and may also enhance the effectiveness of cancer immunotherapy through synergistic effects.

The mark [2] stands for this setting: IFNα 6000 U/ml for 48 hours vs untreated.

For “MAGPLGPGDAVRRVLECVATGTLLTDGPGLQDPCERDQTDA [ZFR2_207]”, in assay [1], the “% A-to-I editing (IFNα)” value came out at 51.31% and the “% A-to-I editing (Basal)” value is 45.30%. Further, the “Fitness Score IFNα” value in the assay with A375 cells (setting [2]) amounted to 1.51.
For “MAPVAAHTVTAAYAPAAATVAVARPAPVAVAAAATAAAYGG [ZFR_18]” the same measures were 49.47%, 37.25% and 1.04.
For “MASLQISPQPRPWRPLPAQAQSAWGPAPAPATYRAEGGWPQ [ADAD2_6]”, in assay [1], the “% A-to-I editing (IFNα)” value is 48.57% and the “% A-to-I editing (Basal)” value was 40.89%. Also, the “Fitness Score IFNα” value in the assay with A375 cells (A375, PepTile abundance upon IFNα treatment, negative = synthetic lethal, positive = protector) was found to be 3.12. For the same sequence, in the assay on A375 cells (setting [2]), the “Fitness Score IFNα” value is given as 3.12.
As to “MAVEITGAGPGASSVCNSAPGSGPSSPNSSHSTIAENGFTG [HDAC5_75]”, in assay [1], the “% A-to-I editing (IFNα)” value came out at 55.71% and the “% A-to-I editing (Basal)” value was found to be 40.79%. The “Fitness Score IFNα” value in the assay with A375 cells (setting [2]) is on record as 0.76.
For “MAVRRVLECVATGTLLTDGPGLQDPCERDQTDALEPMTLQE [ZFR2_209]”, in assay [1], the “% A-to-I editing (IFNα)” value stood at 50.31% and the “% A-to-I editing (Basal)” value came out at 39.66%. In the assay on A375 cells (setting [2]), the “Fitness Score IFNα” value came out at 0.22.
Consider “MCLSSHFQELSIYQDQEQRILKFLEELGEGKATTAHDLSGK [ADAR_32]”, for which, in assay [1], the “% A-to-I editing (IFNα)” value stood at 48.60% and the “% A-to-I editing (Basal)” value turned out to be 38.66%. For the same sequence, in the assay on A375 cells (setting [2]), the “Fitness Score IFNα” value is given as -0.47.
For “MCSFNDPNAKEMHLKGRRHRLQYKKKVNPDLQVEVKPSIRA [ZFR_148]” the same measures were 48.58%, 37.77% and -1.00.
For “MCYYVFGDLSGGCESYLVNLSLNDNDGSSGASDQDTLAPLP [DVL2_126]” the same measures were 54.28%, 43.60% and 0.54.
The corresponding values for “MDTLDPELFVECTECGRKMHQICVLHHEIIWPAGFVCDGCL [EP300_310]” are 26.86%, 14.29% and -1.83.
Turning to “MDTVISLLTGLSDSQVRAFRHTSTLAAMKLMTALVNVALNL [STAG1_51]”, in assay [1], the “% A-to-I editing (IFNα)” value is 80.32% and the “% A-to-I editing (Basal)” value stood at 74.10%. Moreover, the “Fitness Score IFNα” value in the assay on A375 cells (setting [2]) is reported as -0.15.
The corresponding values for “MECMHKLGNSCEFRLLSKEGPAHEPKFQYCVAVGAQTFPSV [ADAR_156]” are 20.83%, 13.60% and 0.35.
For “MEPAKGGEKLQIKKTVSFHLYISTAPCGDGALFDKSCSDRA [ADAR_236]” the same measures were 55.48%, 39.57% and -1.07.
The corresponding values for “MESTIVEPKQNENRLSDTKPNDNKQNNGRSETTKSRPETPK [NIPBL_167]” are 52.90%, 39.35% and 1.11.
With “METVSSNSSNNTGNSTTETSSTLEVRTQGPILTASGKNPVM [STRBP_120]”, in assay [1], the “% A-to-I editing (IFNα)” value came out at 22.73% and the “% A-to-I editing (Basal)” value was determined as 10.91%. Besides, in the assay with A375 cells (setting [2]), the “Fitness Score IFNα” value amounted to 0.07.
The corresponding values for “MFKKRAVEITGAGPGASSVCNSAPGSGPSSPNSSHSTIAEN [HDAC5_74]” are 55.72%, 38.94% and 0.29.
For “MFPAVCAHSKKQGKQEAADAALRVLIGENEKAERMGFTEVT [ADAR_193]” the same measures were 22.77%, 11.47% and 0.57.
The corresponding values for “MFSSRGINFRTRHLMQDLRMLMPHSKADTKMDRKDKLFVIN [BRIX1_17]” are 47.02%, 38.66% and 1.21.
Consider “MGELSSADEKRYRALKRTAERELLMNADVICCTCVGAGDPR [UPF1_147]”, for which, in assay [1], the “% A-to-I editing (IFNα)” value is reported as 24.68% and the “% A-to-I editing (Basal)” value was 13.30%. Moreover, the “Fitness Score IFNα” value in the assay on A375 cells (setting [2]) is -0.63.
Regarding “MGFRGNSGGDYRGPSGGYRGSGGFQRGGGRGAYGTGYFGQG [DHX9_307]”, in assay [1], the “% A-to-I editing (IFNα)” value is on record as 47.59% and the “% A-to-I editing (Basal)” value amounted to 40.04%. Besides, the “Fitness Score IFNα” value in the assay on A375 cells (setting [2]) was 1.50.
Consider “MGLSPSIDTLDHIRALDRLQEVPHEGPMCDLLWSDPDDRGG [PPP2CB_43]”, for which, in assay [1], the “% A-to-I editing (IFNα)” value turned out to be 62.33% and the “% A-to-I editing (Basal)” value is 46.04%. Also, the “Fitness Score IFNα” value in the assay on A375 cells (setting [2]) is given as -0.38.
The corresponding values for “MGPGDAVRRVLECVATGTLLTDGPGLQDPCERDQTDALEPM [ZFR2_208]” are 51.37%, 37.66% and 0.67.
The corresponding values for “MGRRSSGGGRYRNRSPSDSDMEDYSPPPSLSEVARKMKKKE [NIPBL_285]” are 47.59%, 42.29% and 1.59.
The corresponding values for “MIIYDEYMMDTVISLLTGLSDSQVRAFRHTSTLAAMKLMTA [STAG1_49]” are 48.18%, 44.91% and 0.55.
Consider “MIQDPAQAEAYTIYWLVAALAPLVAAPPRPSQGRLAGREWS [UBE2I_32]”, for which, in assay [1], the “% A-to-I editing (IFNα)” value was determined as 47.26% and the “% A-to-I editing (Basal)” value was 44.43%. In addition, the “Fitness Score IFNα” value with A375 cells (setting [2]) is reported as -0.02.
For “MKECVDHLSRDEDEEKLVASLWGAERCLRVLESVTVHNPEN [WAPAL_208]”, in assay [1], the “% A-to-I editing (IFNα)” value is reported as 50.33% and the “% A-to-I editing (Basal)” value was found to be 50.48%. The “Fitness Score IFNα” value in the assay with A375 cells (setting [2]) is listed as 1.55.
